These results are taken from ChEMBL document CHEMBL1201862, “PubChem BioAssay data set” (2004).

Common to all, as to experiment: NCI tumour cell line growth inhibition, 48 h
The test system of assay [1] is SN12C.
The test system of assay [2] is EKVX.
In assay [3] the test system is UACC-62.
Assay [4] relates to LOX IMVI.
Assay [5] relates to KM12.
For assay [6], the system named is NCI/ADR-RES.
Assay [7] deals with PC-3.
For assay [8], the system named is SK-MEL-28.
Assay [9] relates to COLO 205.
Assay [10] relates to CAKI-1.
Assay [11] deals with MDA-MB-231.
The subject of assay [12] is NCI-H23.
The subject of assay [13] is MCF7.
Assay [14] concerns HOP-62.
The test system of assay [15] is A549.
Assay [16] relates to SNB-19.
The subject of assay [17] is SR.
The test system of assay [18] is CCRF-CEM.
In assay [19] the test system is SK-OV-3.
Assay [20] concerns HCC 2998.

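All cell lines were grown in 96-well plates and treated with compound for 48 hours. GI50 is the concentration that inhibits growth by half.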 Activity calls are given as the source filed them. Rule as the data show it: active = GI50 up to about 1.1 µM and inactive = higher. A value given as a limit tells only on which side of the number the result lay.

In the case of `c1ccc(C2=NN(c3nc4ccccc4s3)C3(CCCCC3)N2)nc1`, the GI50 in assay [1] is 19.7 µM (inactive); in assay [2] it was 33.9 µM (inactive); in assay [3], 30.7 µM (inactive); in assay [4], 20.1 µM (inactive); in [5] it was 22 µM (inactive); in assay [6], 19.7 µM (inactive). The GI50 is 15.8 µM (inactive) in assay [7]; 44.3 µM (inactive) in [8]; 19.3 µM (inactive) in [9]; 29.4 µM (inactive) in [10]; 21.6 µM (inactive) in assay [11]; 24.9 µM (inactive) in assay [12]. The GI50 in assay [13] is 21.6 µM (inactive); in assay [14], 28.9 µM (inactive); in [15] it was 27.4 µM (inactive); in [16] it was 40.2 µM (inactive); in assay [17] it was 1.85 µM (inactive); in assay [18] it was 29 µM (inactive). Further, in [19], the GI50 is > 100 µM (inactive).
For the molecule `C[C@H](CSC(=O)c1ccccc1)C(=O)N1c2ccccc2C[C@H]1C(=O)O`, the GI50 in assay [1] was > 100 µM (inactive); in assay [2], > 100 µM (inactive); in assay [3], > 100 µM (inactive); in [20], 91.8 µM (inactive); in assay [5] it was > 10 µM (inactive); in assay [6], 50.6 µM (inactive). The GI50 in assay [7] was > 100 µM (inactive); in assay [8] it was > 100 µM (inactive); in [9], 63 µM (inactive); in [10], > 100 µM (inactive); in [11] it was > 100 µM (inactive); in [12], > 100 µM (inactive). Besides, the GI50 is 46 µM (inactive) in [13]; > 100 µM (inactive) in assay [14]; > 100 µM (inactive) in [15]; > 100 µM (inactive) in [16]; 61.1 µM (inactive) in assay [17]; 32.1 µM (inactive) in assay [18]. Moreover, the GI50 in assay [19] is > 100 µM (inactive).
For `CC1CC(Nc2ccc(Br)cc2)N(C(=O)c2ccc(Br)cc2)O1` (stereo unspecified), the GI50 in assay [1] is 2.75 µM (inactive); in [2], > 10 µM (inactive); in [20], > 10 µM (inactive); in assay [6], 2.19 µM (inactive); in assay [7], 2.23 µM (inactive); in assay [8], > 10 µM (inactive). The GI50 in [9] was 3.49 µM (inactive); in [10], 4.61 µM (inactive); in assay [11] it was > 10 µM (inactive); in assay [12] it was > 10 µM (inactive); in assay [13] it was 5.81 µM (inactive); in [14] it was 6.49 µM (inactive). For the same molecule, the GI50 was 3.97 µM (inactive) in assay [15]; > 10 µM (inactive) in assay [16]; 2.19 µM (inactive) in assay [17]; 2.51 µM (inactive) in assay [18]; > 10 µM (inactive) in assay [19].
In the case of `CC(=O)Oc1ccn2nc(C)c(Br)c2c1`, the GI50 in [1] was > 100 µM (inactive); in assay [2], > 83.2 µM (inactive); in [3], 25.5 µM (inactive); in assay [4], 34 µM (inactive); in [20] it was > 100 µM (inactive); in assay [5] it was > 100 µM (inactive). The GI50 in [6] was > 100 µM (inactive); in [7] it was > 53.6 µM (inactive); in assay [8], > 100 µM (inactive); in assay [9], 25.6 µM (inactive); in assay [11], > 81.3 µM (inactive); in assay [12], > 58.2 µM (inactive). Besides, the GI50 is 47.8 µM (inactive) in [13]; > 67.1 µM (inactive) in assay [14]; > 70.5 µM (inactive) in [15]; > 100 µM (inactive) in assay [16]; > 76.7 µM (inactive) in assay [17]; 29.9 µM (inactive) in assay [18].
With `CC1(C)CCc2c(cc3c(c2O)CCC(C)(C)O3)O1`, the GI50 in assay [1], in assay [2], in assay [3], in assay [20], in assay [5] and in assay [6] was > 100 µM (inactive) each time. For the same molecule, the GI50 in assay [7] was 49.3 µM (inactive); in [8], > 100 µM (inactive); in assay [9], > 100 µM (inactive); in assay [10], > 100 µM (inactive); in assay [11], > 100 µM (inactive); in assay [12], > 100 µM (inactive). For the same molecule, the GI50 in [13] was > 100 µM (inactive); in assay [14], > 100 µM (inactive); in [15], > 100 µM (inactive); in assay [16], > 100 µM (inactive); in [17], 76.6 µM (inactive); in assay [18], 67.8 µM (inactive). Besides, the GI50 in assay [19] was > 100 µM (inactive).
On to `O=C1CSC2=NC3=C(CSC/C3=C\c3ccccc3)C(c3ccccc3)N12` (stereo unspecified), for which the GI50 in [1] was 92.9 µM (inactive); in assay [2], > 100 µM (inactive); in assay [3], > 100 µM (inactive); in assay [4] it was 44.5 µM (inactive); in assay [20] it was > 100 µM (inactive); in [5], 70.3 µM (inactive). Moreover, the GI50 was > 100 µM (inactive) in [6]; 28.1 µM (inactive) in assay [7]; > 100 µM (inactive) in assay [8]; > 100 µM (inactive) in assay [9]; > 100 µM (inactive) in [11]; 62.1 µM (inactive) in assay [12]. Further, the GI50 in [13] was 33.3 µM (inactive); in assay [14] it was > 100 µM (inactive); in assay [15] it was 50.6 µM (inactive); in assay [17] it was 65.3 µM (inactive); in assay [18] it was 33.8 µM (inactive); in assay [19] it was > 100 µM (inactive).
For the molecule `CC(C)[Si](OC1=C(c2ccccc2)C(NC(=O)/C=C/c2ccc([N+](=O)[O-])cc2)CCC1)(C(C)C)C(C)C` (stereo unspecified), the GI50 in assay [2], in assay [3], in assay [4], in [20], in assay [5] and in [6] was > 100 µM (inactive) in each case. Besides, the GI50 in [7], in assay [9], in [11], in assay [12], in assay [13] and in assay [14] was > 100 µM (inactive) in each case. The GI50 in assay [15], in assay [16], in [17], in [18] and in assay [19] was > 100 µM (inactive) in each case.
`COC1=C2C=[N+](C)C3C(=C2C=CC1OC)Cc1cc2c(cc13)OCO2` (stereo unspecified): the GI50 is 4.43 µM (inactive) in [1]; 17.9 µM (inactive) in assay [2]; 7.6 µM (inactive) in assay [3]; 16.3 µM (inactive) in [4]; 2.8 µM (inactive) in assay [5]; 29.9 µM (inactive) in assay [6]. The GI50 was 16.5 µM (inactive) in assay [7]; 15.1 µM (inactive) in assay [8]; 5.26 µM (inactive) in assay [9]; 15.8 µM (inactive) in [10]; 14.6 µM (inactive) in assay [11]; 13 µM (inactive) in assay [12]. Moreover, the GI50 in assay [13] is 9.77 µM (inactive); in [14] it was 13.9 µM (inactive); in assay [15], 15.8 µM (inactive); in assay [16], 5.28 µM (inactive); in assay [17], 0.879 µM (active); in assay [18], 6.37 µM (inactive). In assay [19], the GI50 is 15.1 µM (inactive).
